Results reported in patent US20160250277A1, “[…] OPIOID RECEPTOR AGONISTS FOR PREVENTING, INHIBITING OR TREATING NAUSEA AND VOMITING” (CARA THERAPEUTICS, INC., priority 2013, published 2016).

Tests used:
[1] = tested on: acute and chronic visceral, inflammatory and neuropathic pain; assay: standard preclinical pain models; format: in vivo
Procedure: (§1) The analgesic effect of CR845 was recordable within 15 minutes post-administration and lasted for up to 18 hours following single-dose administration.

[2] = tested on: “Chung Model” of neuropathic pain; assay: “Chung Model” of neuropathic pain (paw withdrawal threshold); format: in vivo, rats; conditions: for blockade of CR845 effect by kappa antagonist into injured paw: intraplantar 0.2 mg, 15 min prior to CR845 1 mg/kg, rats
Procedure: FIG. 1: Efficacy of CR845 in “Chung Model” of neuropathic pain is blocked with Peripheral (Intrapaw) administration of a kappa antagonist (norBNI) in rats. *** denotes p<0.001 compared to vehicle-treated controls (two-way ANOVA). Vehicle or Nor-BNI was administered intraplantarly (0.2 mg) 15 min prior to CR845. Injection (1 mg/kg). N=6 male rats/group, mean±SEM.
The peripheral mechanism of action of CR845 is supported preclinically by both biochemical in vitro assays and in vivo functional pharmacological studies. […] Moreover, in standard preclinical pain models, such as the “Chung Model” of neuropathic pain, the analgesic action of CR845 was blocked with kappa opioid receptor antagonists administered directly to the local site of injury, indicating a peripheral site of action for CR845 (FIG. 1). In the “Chung Model”, neuropathic pain is induced experimentally by ligating spinal nerves mediating sensation for a hind limb. […] Sets of different thickness filaments are used to test sensitivity, each of which is designed to produce a given force (in grams) upon bending after contact. By testing with these filaments, the minimum force to evoke a withdrawal response defines the paw withdrawal threshold. The nerve injury produces a marked reduction in paw withdrawal thresholds (increased sensitivity to force) in response to probing with the filaments.

[3] = pharmacokinetic studies, drug in extracted brain tissue; format: in vivo; conditions: animals, analgesic and supra-analgesic doses
[4] = tested on: pro-inflammatory mediators; assay: production and release of pro-inflammatory mediators; conditions: preclinical
Procedure: as §1

[5] = tested on: patients undergoing laparoscopic hysterectomy; conditions: human, in vivo
[6] = tested on: patients following bunionectomy surgery; conditions: human, in vivo
[7] = tested on: human subjects; conditions: in vivo

## CC(C)C[C@@H](NC(=O)[C@@H](Cc1ccccc1)NC(=O)[C@H](N)Cc1ccccc1)C(=O)N[C@H](CCCCN)C(=O)N1CCC(N)(C(=O)O)CC1 [CR845, D-Phe-D-Phe-D-Leu-D-Lys-[ω(4-aminopiperidine-4-carboxylic acid)]-OH]
[1]; following single-dose administration
  duration of analgesic effect: up to 18 hours
[1]; preclinical pain models
  onset of analgesic effect post-administration: ≤ 15 min
[1]; standard preclinical pain models
  attenuation of pain in preclinical pain models: successfully attenuated acute and chronic visceral, inflammatory and neuropathic pain in a dose-dependent manner
[2]; I.V. CR845 1 mg/kg, male rats
  paw withdrawal threshold (neuropathic pain): reduces this neuropathic pain as demonstrated by a subsequent increase in the withdrawal threshold
[3]
  concentration of drug in extracted brain tissue: no measurable concentrations of drug in extracted brain tissue
[4]
  production and release of pro-inflammatory mediators: decreased the production and release of pro-inflammatory mediators
[5]
  PID for 0-4, 0-8 and 0-16 hour time intervals vs Placebo/Placebo: statistically significant improvements
  Responders in global evaluation of study medication vs placebo: higher percentage of patients
  SPID over 0-8, 0-12 and 0-16 time periods vs Placebo/Placebo: reduced pain intensity compared to the Placebo/Placebo group in a statistically significant manner
  greater reduction in pain intensity at 24 hours vs Placebo/Placebo: approximately 60%
  improvement in mean SPID values 0-4 hour vs Placebo/Placebo: 3.5 fold
  mean TOTPAR0-2 (pain relief within first 2 hours) vs Placebo/Placebo: statistically superior pain relief
  mean TOTPAR 0-12 hour interval vs Placebo/Placebo: reached statistical significance
  mean TOTPAR scores across all intervals vs Placebo/Placebo: numerically superior
  pain intensity for 0-8 and 0-16 hour time intervals vs Placebo/Placebo: statistically significant decreases in pain intensity
  patients who experienced nausea: 26.1%
  patients who experienced vomiting: 1.7%
  pruritus reported vs placebo: less pruritus
  reduction of incidence of nausea vs placebo: approximately 50%
  reduction of incidence of vomiting vs placebo: ~80%
  reported pain relief (TOTPAR) for 0-4, 2-4 and 0-8 hour time periods: statistically significant improvements in reported pain relief
[5]; iv
  mean PID from baseline at each time interval vs Placebo/Placebo: numerically superior
[5]; iv, 0.04 mg/kg
  blood sodium increase (hypernatremia), share of total patients: 14%
[6]
  SPID0-36 vs placebo: statistically significant
  SPID0-48 vs placebo: statistically significant
  SPID scores 0-24, 0-36, 0-48 vs placebo: Numerical improvements in SPID scores
  acute psychiatric side effects: no evidence of acute psychiatric side effects
  cases of somnolence reported: seven
  mean PID from baseline at each time interval across 48 hours vs placebo: numerically superior
  mean plasma sodium concentration vs normal range: not outside the normal physiological range
  most frequent TEAEs (greater than 10%): transient facial tingling and somnolence
  pain intensity differences 0-12 hour time interval vs placebo: Statistically significant reductions in pain intensity differences
  pain intensity differences 0-36 hour time interval vs placebo: Statistically significant reductions in pain intensity differences
  reduction of incidence of nausea vs placebo: 60%
  reduction of incidence of vomiting vs placebo: 80%
  rise of mean plasma sodium concentration from baseline: approximately 3%
[6]; iv, 0.005 mg/kg
  SPID0-24 vs placebo: statistically significant reduction in pain intensity compared to placebo
[7]
  drug-related respiratory depression: no evidence of drug-related respiratory depression

## Oc1ccc2c3c1O[C@H]1c4[nH]c5c(c4C[C@@]4(O)[C@@H](C2)N(CC2CC2)CC[C@]314)C[C@@]1(O)[C@H]2Cc3ccc(O)c4c3[C@@]1(CCN2CC1CC1)[C@H]5O4 [nor-BNI, nor-binaltorphamine]
[2]
  blockade of CR845 effect by kappa antagonist into injured paw: significantly reduces the effect of CR845
[2]; listed as norBNI
  blockade of CR845 effect by kappa antagonist into injured paw: blocked
